Active and inactive are the calls of the source. The calls are words filed in the database; no cut-off is given here.
Columns and labels:
Mus musculus [1] = assay: Downregulation of Bcl-2 in Kunming mouse implanted with mouse H22 cells at 10 to 30 uM measured after 48 hrs by immunofluorescence analysis; assay type: functional; details: dose 10-30 µM
HepG2 [2] = assay: Induction of lysosomal impairment in human HepG2 cells after 48 hrs by Lyso-tracker Red staining based assay; assay type: functional, cell-based; details: dose 50-70 µM
[3] = Toxicity in Kunming mouse implanted with mouse H22 cells assessed as change in body weight at 10 mg/kg, iv administered for 7 consecutive days starting from day 11 post inoculation cotreated with DFMO at 200 mg/kg and measured after 18 days (reference value: -0.3 %); assay type: organism-based; details: in vivo, 192 h, time 8 day
H22 [4] = assay: (§1) Potentiation of DFMO-induced antitumor activity against mouse H22 cells implanted in Kunming mouse assessed as reduction in tumor weight at 10 mg/kg, iv administered for 7 consecutive days starting from day 8 post inoculation cotreated with DFMO at 200 mg/kg and measured after 16 days (reference value: 1.31 +/- 0.33 g); assay type: functional; details: time 8 day
H22 [5] = assay: as §1, with “as” for “as reduction in”, “growth inhibition” for “weight”, “38.8 %)” for “1.31 +/- 0.33 g)”; assay type: functional; details: 192 h, time 8 day, read-out: TGI
H22 [6] = assay: Antimetastatic activity against mouse H22 cells implanted in Kunming mouse assessed as number of metastatic focus at 10 mg/kg, iv administered for 7 consecutive days starting from day 11 post inoculation and measured after 18 days (reference value: 5.73 +/- 14.6); assay type: functional; details: time 8 day
Mus musculus [7] = assay: Upregulation of phosphorylated p38 in Kunming mouse implanted with mouse H22 cells assessed as activation of p53 measured after 48 hrs by immunofluorescence analysis; assay type: functional; details: dose 10-30 µM
[8] = Antiproliferative activity against mouse H22 cells assessed as inhibition of cell proliferation measured after 48 hrs in presence of 800 uM aspirin by MTT assay; assay type: functional, cell-based
H22 [9] = assay: Antitumor activity against mouse H22 cells implanted in Kunming mouse assessed as reduction in tumor weight at 10 mg/kg, iv administered for 7 consecutive days starting from day 8 post inoculation and measured after 16 days (reference value: 2.15 +/- 0.51 g); assay type: functional; details: time 8 day
[10] = Toxicity in Kunming mouse implanted with mouse H22 cells assessed as change in body weight at 10 mg/kg, iv administered for 7 consecutive days starting from day 11 post inoculation and measured after 18 days (reference value: 5.2 %); assay type: organism-based; details: in vivo, 192 h, time 8 day
[11] = Toxicity in Kunming mouse implanted with mouse H22 cells assessed as change in mouse body weight at 10 mg/kg, iv administered for 7 consecutive days starting from day 8 post inoculation and measured after 16 days (reference value: 21 %); assay type: organism-based; details: in vivo, 192 h, time 8 day
Mus musculus [12] = assay: Upregulation of phosphorylated JNK in Kunming mouse implanted with mouse H22 cells assessed as activation of p53 measured after 48 hrs by immunofluorescence analysis; assay type: functional; details: dose 10-30 µM
HepG2 [13] = assay: Induction of apoptosis in human HepG2 cells assessed as activation of caspase 9 at 50 to 70 uM measured after 48 hrs by immunofluorescence assay; assay type: functional, cell-based; details: dose 50-70 µM

Cl.Cl.NCCCNCC(=O)NCc1cccc2c(=O)cc(-c3cccc4ccccc34)oc12
Activity (Mus musculus [1]): Active | Activity (HepG2 [2]): Dose-dependent effect | Activity [3]: 1.2% | Activity (H22 [4]): 1.22 g | inhibition in vivo at 10 mg/kg (H22 [5]): 43% | Activity (H22 [6]): 40.5 | Activity (Mus musculus [7]): Dose-dependent effect | IC50 [8]: 21.1 µM | Activity (H22 [9]): 1.3 g | Activity [10]: 3.7% | Activity [11]: 4% | Activity (Mus musculus [12]): Dose-dependent effect | Activity (HepG2 [13]): inactive

Reference: ChEMBL document CHEMBL4715719, “Synthesis and biological properties of polyamine modified flavonoids as hepatocellular carcinoma inhibitors” (Eur J Med Chem, 2016)
